Where two headings read alike, the source gives them in different places.
Legend:
[1] = target: T1, alcohol dehydrogenase from L. brevis (Levilactobacillus brevis, UniProt Q84EX5); assay: biochemical; type: biochemical; conditions: for Activity: 0.19 mM NADPH, pH 7.0, purified enzyme diluted 1:10
T1 sequence (Q84EX5 2-252): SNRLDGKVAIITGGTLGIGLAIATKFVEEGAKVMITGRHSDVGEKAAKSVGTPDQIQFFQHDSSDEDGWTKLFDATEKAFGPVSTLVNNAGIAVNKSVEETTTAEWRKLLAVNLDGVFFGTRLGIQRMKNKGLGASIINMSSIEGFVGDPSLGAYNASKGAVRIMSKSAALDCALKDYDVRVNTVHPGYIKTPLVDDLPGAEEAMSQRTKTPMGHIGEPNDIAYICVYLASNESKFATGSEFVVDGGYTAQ
Description: A series of other ketones and keto esters were used instead of acetophenone and it was tested whether these can be reduced by enzyme catalysis.
The following test mixture was used for this:
970 μl triethanolamine buffer (50 mM; pH 7.0, containing 10 mM keto compound)
20 μl NADPH (0.19 mM in the test)
Some of the ketones were also tested at a concentration of 1 mM in order to verify a possible substrate inhibition at 10 mM.

[2] = Temperature stability of the alcohol dehydrogenase (30 min at temperature, measured at 30° C.); type: physicochemical
Description: The temperature stability in the range of 25 to 70° C. was determined in an analogous manner to that described under A. The homogeneous enzyme solution was subjected for 30 min to the recited temperatures and subsequently measured directly at 30° C. with the above test mixture. […] In contrast the ADH from L. kefir is only stable up to 40° C. with a maximum at 37° C., afterwards the activity decreases rapidly. The maximum for this enzyme is at 37° C.

[3] = Temperature optimum of enzyme activity; type: biochemical
[4] = relative to acetophenone = 100, 10 mM keto compound, read-out: Relative act.
[5] = relative to acetophenone = 100, 10 mM keto compound

| Compound | Activity ([1]; 10 mM keto compound) [U/ml] | activity at 10000 µM ([1]; read-out: Relative act.) [%] | activity at 10000 µM [1, 4] [%] | other results |
| --- | --- | --- | --- | --- |
| C(CCOCC1CO1)COCC1CO1 (stereo not drawn) [1,4-butanediol-diglyceridyl ether] | 0.77 | 24 |  |  |
| CC(=O)CC(C)=O [2,4-pentanedione] | 4.22 | 130 |  |  |
| CC(=O)c1ccccc1Cl [2-Cl-acetophenone] | 0.33 | 10 |  |  |
| CC1CCCCC1=O (stereo not drawn) [2-methylcyclohexanone] | 6.25 |  | 192 |  |
| CCOC(=O)C(=O)CCc1ccccc1 [2-oxo-4-phenylbutyric acid ethyl ester] | 4.60 |  |  | Relative act. [1, 5]: 141% |
| CC(=O)c1cccc(Cl)c1 [3-Cl-acetophenone] | 4.80 | 147 |  |  |
| CCOC(=O)CC(=O)CC [3-oxo-n-valeric acid ethyl ester] | 2.29 |  | 70 |  |
| CCC(=O)CC(=O)OC [3-oxo-n-valeric acid methyl ester] | 2.26 |  | 69 |  |
| CCOC(=O)CC(=O)CCl [4-Cl-acetic acid ethyl ester] | 3.04 | 93 |  |  |
| CC(=O)c1ccc(Cl)cc1 [4-Cl-acetophenone] | 6.63 | 203 |  |  |
| CCOC(=O)CCCC(C)=O [4-acetylbutyric acid ethyl ester] | 2.84 |  | 87 |  |
| CC(=O)CCCC(=O)O [4-acetylbutyric acid] | 0.32 |  | 10 |  |
| CCc1ccc(C(C)=O)cc1 [4-ethylacetophenone] | 2.13 | 65 |  |  |
| CCCCOC(C)=O [acetic acid butyl ester] | 2.07 | 64 |  |  |
| CC(=O)CC(=O)OCc1ccccc1 [aceto acetic acid benzyl ester] | 4.11 |  | 126 |  |
| CCOC(=O)CC(C)=O [aceto acetic acid ethyl ester] | 3.54 | 109 |  |  |
| COC(=O)CC(C)=O [aceto acetic acid methyl ester] | 3.81 | 117 |  |  |
| O=Cc1ccccc1 [benzaldehyde] | 0.30 | 9 |  |  |

| Compound | Activity ([1]; 10 mM keto compound) [U/ml] | activity at 10000 µM ([1]; read-out: Relative act.) [%] | activity at 10000 µM [1, 4] [%] | other results |
| --- | --- | --- | --- | --- |
| CCOC(=O)CC(=O)c1ccccc1 [benzoyl acetic acid ethyl ester] | 1.14 |  | 35 |  |
| CC(=O)CCc1ccccc1 [benzylacetone] | 3.24 |  |  | activity at 10000 µM ([1]; read-out: Relative act., relative to acetophenone = 100, 10 mM keto compound): 99% |
| CC(=O)Cc1ccccc1 [benzylmethyl ketone] | 0.36 | 11 |  |  |
| CCOC(=O)CC1CCCCC1=O (stereo not drawn) [cyclohexanone-2-acetic acid ethyl ester] | 0.14 |  | 4 |  |
| CCOC(=O)C1CCCCC1=O (stereo not drawn) [cyclohexanone-2-carboxylic acid ethyl ester] | 0.41 |  | 13 |  |
| CCOC(=O)C(C)=O [ethyl pyruvate] | 8.10 |  | 248 |  |
| CCOC(=O)C(C)C(C)=O (stereo not drawn) [ethyl-2-methylacetoacetate] | 0.84 |  | 26 |  |
| CCOC(=O)C(=O)CCc1ccccc1 [ethyl-2-oxo-4-phenyl butyrate] | 0.40 |  |  | Relative act. [1, 5]: 12% |
| CCCC(=O)CC(=O)OCC [ethylbutyryl acetate] | 2.21 |  | 68 |  |
| CC(=O)CO [hydroxyacetone] | 0.74 |  | 23 |  |
| CCOC(=O)CC(=O)C(C)C [isobutyrylacetic acid ethyl ester] | 1.93 |  | 59 |  |
| CCOC(=O)CCC(C)=O [laevulinic acid ethyl ester] | 2.99 |  | 92 |  |
| COC(=O)C(C)=O [methyl pyruvate] | 3.22 |  | 98 |  |
| CC(=O)c1cccc2ccccc12 [methyl-1-naphthyl ketone] | 1.21 |  | 37 |  |
| CCC(=O)c1ccccc1 [propiophenone] | 0.55 | 17 |  |  |
| CCOC(=O)C(F)(F)F [trifluoroacetic acid ethyl ester] | 0.50 | 15 |  |  |
| alcohol dehydrogenase from Lactobacillus kefir: NADP-dependent R-alcohol dehydrogenase from Lactobacillus kefir (DE 40 14 573 C1), comparison enzyme [reference compound] |  |  |  | temperature at which the enzyme is inactivated by 50% (thermal deactivation) [2]: 45 °C; temperature of maximum stability ([2]; 30 min): 37 °C; temperature range in which the enzyme is stable ([2]; 30 min): up to 40 °C; act. (temperature stability) ([2]; 30 min at 25° C.): 36.5 U/ml; act. (temperature stability) ([2]; 30 min at 30° C.): 30.2 U/ml; act. (temperature stability) ([2]; 30 min at 37° C.): 35.8 U/ml; act. (temperature stability) ([2]; 30 min at 40° C.): 32 U/ml; act. (temperature stability) ([2]; 30 min at 45° C.): 26.2 U/ml; act. (temperature stability) ([2]; 30 min at 50° C.): 2.4 U/ml; act. (temperature stability) ([2]; 30 min at 55° C.): 0 U/ml; optimal test temperature (activity maximum) [3]: 37 °C; act. (temperature optimum) ([3]; test temperature 20° C.): 28.0 U/ml; act. (temperature optimum) ([3]; test temperature 25° C.): 28.2 U/ml; act. (temperature optimum) ([3]; test temperature 30° C.): 35.2 U/ml; act. (temperature optimum) ([3]; test temperature 35° C.): 36.2 U/ml; act. (temperature optimum) ([3]; test temperature 40° C.): 34.4 U/ml; act. (temperature optimum) ([3]; test temperature 45° C.): 35.4 U/ml; act. (temperature optimum) ([3]; test temperature 50° C.): 26.0 U/ml; act. (temperature optimum) ([3]; test temperature 55° C.): 3.0 U/ml; act. (temperature optimum) ([3]; test temperature 60° C.): 0 U/ml |
| ketovaleric acid | 0.27 |  |  | Relative act. [1, 5]: 8% |
